What was measured:
[1] = test system: E. coli EC1061 (NDM-1 CMY-6); test: Aztreonam/Tigemonam MIC at various concentrations of BLI; assay type: cell-based; details: EC1061
Procedure: MIC values for each bacterial strain were measured for each antimicrobial compound at various concentrations of each BLI. […]

[2] = molecular target: T1, KPC-3 (Escherichia coli EC1007 lysate) (Klebsiella pneumoniae, UniProt Q9F663, H272Y); test: Inhibition of biapenem hydrolysis by bacterial lysate; assay type: biochemical; details: EC1007 KPC-3 lysate; read-out: IC50 (μg/mL) of inhibition of biapenem hydrolysis
T1 construct: Lysates were prepared from bacteria expressing various β-lactamases as a source of enzymes; endogenous in cells; host or cells: Escherichia coli strain EC1007 (freeze-thaw lysate supernatant)
T1 sequence (Q9F663 25-293 H272Y): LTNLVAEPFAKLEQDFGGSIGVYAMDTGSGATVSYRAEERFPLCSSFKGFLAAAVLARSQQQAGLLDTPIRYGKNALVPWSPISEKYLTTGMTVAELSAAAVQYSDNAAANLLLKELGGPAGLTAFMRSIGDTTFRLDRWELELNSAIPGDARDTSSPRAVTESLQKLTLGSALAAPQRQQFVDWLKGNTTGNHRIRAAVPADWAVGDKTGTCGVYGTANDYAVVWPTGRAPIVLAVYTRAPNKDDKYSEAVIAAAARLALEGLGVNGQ
Procedure: (§1) The activity of β-lactamase inhibitors to inhibit hydrolysis of biapenem was studied. Lysates were prepared from bacteria expressing various β-lactamases as a source of enzymes. Bacterial lysates were prepared as follows. A single colony from the fresh overnight plate was transferred to 5 mL of LB broth and grown to OD600=0.6-0.8. Next, this culture was transferred to 500 mL of LB and grown to OD600=0.7-0.9. Cells were pelleted by centrifugation at 5000 RPM (JA-14 rotor) for 15 minutes at room temperature. The pellet was resuspended in 10 mL of PBS. Five freeze-thaw cycles by putting cells at −20° C. and thawing them at the room temperature were next applied. After the last thaw step cells were spun down at 18K for 30 minutes and the supernatant was collected. This lysate was stored at −20° C.
(§2) Next, the activity of bacterial lysates was optimized for biapenem cleavage as follows. 50 μl of buffer A (50 mM Sodium Phosphate pH=7; 0.5% glucose, 1 mM MgCl2) was added to each well of 96-well UV-transparent plate. 50 μl of lysate was titrated vertically in 96-well plate column to generate 2-fold lysate dilutions. 100 μl of buffer A was added to each well, placed in plate reader at 37° C. and incubated for 15 minutes. 50 μl of 50 μg/mL solutions of biapenem in buffer A (pre-incubated at 37° C. for 15 minutes) were added to each well. Hydrolysis of biapenem was measured at 296 nm. This experiment was used to determine the optimal lysate dilution which produced a linear curve of relative UV signal that decreased to approximately OD=0.3-0.5 over 1 hour.
(§3) Finally, the potency of cyclic boronic acid derivative to inhibit the cleavage of biapenem cleavage by bacterial lysates was determined. 100 μl of buffer A (50 mM Sodium Phosphate pH=7; 0.5% glucose, 1 mM MgCl2) was added to each well of 96-well UV-transparent plate. 50 μl of 6× cyclic boronic acid derivative solution in buffer A was titrated vertically in 96-well plate column to generate 3-fold dilutions. 50 μl of diluted lysate in buffer A (optimal dilution is determined in experiment above) was added, and the plate was incubated in the plate reader at 37° C. for 15 minutes. 50 μl of 50 μg/mL solution of biapenem in buffer A (pre-incubated at 37° C. for 15 minutes) were next added to each well and hydrolysis of biapenem was recorded at 296 nm. EC50 of inhibition was determined by plotting the rate of biapenem cleavage vs. cyclic boronic acid derivative concentration.

[3] = molecular target: T2, SME-2 (Serratia marcescens SM1000 lysate) (Serratia marcescens, UniProt P52682); test: as above; assay type: biochemical; details: SM1000 SME-2 lysate; read-out: IC50 (μg/mL) of inhibition of biapenem hydrolysis
T2 construct: Lysates were prepared from bacteria expressing various β-lactamases as a source of enzymes
T2 sequence (P52682 28-294 limits assumed): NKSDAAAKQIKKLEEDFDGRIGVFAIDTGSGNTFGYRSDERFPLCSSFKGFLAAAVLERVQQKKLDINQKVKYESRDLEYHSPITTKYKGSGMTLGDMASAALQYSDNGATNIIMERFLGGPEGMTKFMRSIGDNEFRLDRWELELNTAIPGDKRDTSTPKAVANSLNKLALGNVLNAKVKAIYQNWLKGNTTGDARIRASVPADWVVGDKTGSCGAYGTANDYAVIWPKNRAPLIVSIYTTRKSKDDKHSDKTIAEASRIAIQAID
Procedure: as §1, §2, §3

[4] = molecular target: T3, KPC-2 (Klebsiella pneumoniae KP1004 lysate) (Klebsiella pneumoniae, UniProt Q9F663); test: as above; assay type: biochemical
T3 construct: Lysates were prepared from bacteria expressing various β-lactamases as a source of enzymes; endogenous in cells; host or cells: Klebsiella pneumoniae strains KP1004 and KP1008 (freeze-thaw lysate supernatants)
T3 sequence (Q9F663 25-293 limits assumed): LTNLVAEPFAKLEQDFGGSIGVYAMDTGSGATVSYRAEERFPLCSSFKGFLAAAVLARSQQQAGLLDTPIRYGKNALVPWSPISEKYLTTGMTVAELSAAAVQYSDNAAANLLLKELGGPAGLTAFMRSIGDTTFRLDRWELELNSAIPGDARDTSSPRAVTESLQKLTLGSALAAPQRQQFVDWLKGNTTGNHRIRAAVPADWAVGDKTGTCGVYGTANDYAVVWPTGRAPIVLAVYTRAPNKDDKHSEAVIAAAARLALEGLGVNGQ
Procedure: as §1, §2, §3

[5] = molecular target: T4, KPC-2 (Klebsiella pneumoniae KP1008 lysate) (Klebsiella pneumoniae, UniProt Q9F663); test: as above; assay type: biochemical
T4 construct: Lysates were prepared from bacteria expressing various β-lactamases as a source of enzymes; endogenous in cells; host or cells: Klebsiella pneumoniae strains KP1004 and KP1008 (freeze-thaw lysate supernatants)
T4 sequence (Q9F663 25-293 limits assumed): as above
Procedure: as §1, §2, §3

[6] = test system: bacterial strains that expressed the beta-lactamase, KPC-2 alone or in combination with NDM-1; test: Biapenem MIC at various concentrations of Compound 5 (summary); assay type: cell-based
[7] = test system: ECL1004 NMC-A; test: Dose titration biapenem potentiation assay (MPC1); assay type: cell-based, Enterobacter cloacae; details: biapenem 1 μg/mL
Outline: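 Growth of carbapenemase-expressing strains measured with biapenem held at a sub-inhibitory 1 μg/mL; BLI compounds titrated from a top concentration of 40 μg/mL. MPC1 is the inhibitor concentration that restores growth inhibition by biapenem.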

[8] = test system: strains expressing KPC alone or in combination with additional beta-lactamases; test: Checkerboard assay, Compound 5 with biapenem (summary); assay type: cell-based; details: highest concentration of Compound 5 10 mg/L
Excerpt: The potentiation effect is observed by the reduction of the minimum inhibitory concentration of β-lactam antibiotics in the presence of β-lactamase inhibitors (BLIs). […] Methods for Dilution of Antimicrobial Susceptibility Tests for Bacteria That Grow Aerobically—Eighth Edition; Approved Standard. CLSI Document M07-A8, 2009). In this assay, multiple dilutions of two drugs, namely BLI and β-lactam (biapenem), are being tested, alone and in combination, at concentrations equal to, above and below their respective minimal inhibitory concentrations (MICs). BLIs are solubilized in 10% DMSO at 10 mg/mL. Stock solutions are further diluted, according to the needs of a particular assay, in Mueller Hinton Broth (MHB). Stock solution can be stored at −80° C.
The checkerboard (CB) assay is performed in microtiter plates. Biapenem is diluted in the x axis, each column containing a single concentration of antibiotic. BLIs are diluted in the y axis, each row containing an equal concentration of BLI. The result of these manipulations is that each well of the microtiter plate contains a unique combination of concentrations of the two agents. […] Microtiter plates are incubated during 20 h at 35° C. and are read using a microtiter plate reader (Molecular Devices) at 650 nm as well as visual observation using a microtiter plate reading mirror.

[9] = test system: Klebsiella pneumonia (KP1004) KPC-2; test: Biapenem MIC at various concentrations of Compound 5; assay type: cell-based; details: KP1004 KPC-2

O=C(O)C[C@@H]1CC[C@H](NC(=O)Cc2cccs2)B(O)O1 [Compound 5, 2-((3R,6S)-2-hydroxy-3-(2-(thiophen-2-yl)acetamido)-1,2-oxaborinan-6-yl)acetic acid]
Aztreonam MIC (μg/ml) in the presence of BLI ([1]; Compound 5 0.31 μg/ml): 4 µg/mL
Aztreonam MIC (μg/ml) in the presence of BLI ([1]; Compound 5 0.63 μg/ml): 4 µg/mL
Aztreonam MIC (μg/ml) in the presence of BLI ([1]; Compound 5 5 μg/ml): 0.5 µg/mL
Aztreonam MIC (μg/ml) in the presence of BLI ([1]; Compound 5 10 μg/ml): 0.5 µg/mL
Aztreonam MIC (μg/ml) in the presence of BLI ([1]; Compound 5 20 μg/ml): 0.5 µg/mL
Aztreonam MIC (μg/ml) in the presence of BLI ([1]; Compound 5 […]): 2 µg/mL
IC50 [2]: < 0.337 µM
IC50 [3]: < 0.337 µM
IC50 [4]: < 0.337 µM
IC50 [5]: 0.337 to 3.37 µM
effect on Biapenem MIC [6]: decreased the Biapenem MIC
BPM MPC1 ECL1004 NMC-A [7]: X (X = MPC1 of less than 1 μg/mL.)
potentiation of biapenem [8]: significantly potentiate biapenem
Biapenem MIC ([9]; Compound 5 0.31 μg/ml): 0.5 µg/mL
Biapenem MIC ([9]; Compound 5 0.63 μg/ml): 0.25 µg/mL
Biapenem MIC ([9]; Compound 5 5 μg/ml): 0.06 µg/mL
Biapenem MIC (μg/ml) ([9]; Compound 5 10 μg/ml): ≦0.03 μg/ml
Biapenem MIC (μg/ml) ([9]; Compound 5 20 μg/ml): ≦0.03 μg/ml

Source: patent publication US20150119363A1, “METHODS OF TREATING BACTERIAL INFECTIONS” (Rampex Pharmaceuticals, Inc., priority 2012, published 2015)
